# Results as given in ChEMBL document CHEMBL1201862, “PubChem BioAssay data set” (2004).
# “And” between values parts separate entries of the source, which are not always exact repeats. Identical values can stand only once. The source made the active and inactive calls.
# Tests used:
# [1] = inhibitors of SNCA 5'UTR-driven reporter translation, confirmation, H4 neuroglioma cells, luminescence (AID 1988); type: functional, cell-based
# [2] = inhibitors of firefly luciferase expression or activity, dose response, H4 neuroglioma cells, luminescence (AID 1990); type: functional, cell-based
# [3] = tested on: Streptococcus sp. 'group A'; experiment: growth inhibition of control SK(-) GAS strain, dose response, counter-screen for streptokinase expression inhibitor project, luminescence, kanamycin, BacTiterGlo, confirmation (AID 1900); type: functional, organism-based
# [4] = Luminescence Cell-Based Dose Response HTS to Identify Inhibitors of 5'UTR Stem-Loop Driven Prion Protein mRNA Translation in H4 Neuroglioblastoma Cells. [Related pubchem assays: 1827 (Project Summary), 1813 (Primary HTS)]; type: functional
# [5] = Vero cell cytotoxicity, dose response, cytotoxicity control for Vif-APOBEC3G degradation inhibitor project, Vero cells (AID 1117358); type: functional; settings: Human immunodeficiency virus 1, Vero
# Streptokinase A = target: T1, Streptokinase A (Streptococcus pyogenes serotype M1, UniProt P10520); experiment: S. pyogenes streptokinase expression inhibitors, potency, dose response, plasminogen activation absorbance, OD405 (AID 1914); type: functional, Streptococcus pyogenes M1 GAS;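 note: secreted streptokinase activity via plasminogen activation per viability signal from cell pellet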
# T1 sequence (P10520 whole entry): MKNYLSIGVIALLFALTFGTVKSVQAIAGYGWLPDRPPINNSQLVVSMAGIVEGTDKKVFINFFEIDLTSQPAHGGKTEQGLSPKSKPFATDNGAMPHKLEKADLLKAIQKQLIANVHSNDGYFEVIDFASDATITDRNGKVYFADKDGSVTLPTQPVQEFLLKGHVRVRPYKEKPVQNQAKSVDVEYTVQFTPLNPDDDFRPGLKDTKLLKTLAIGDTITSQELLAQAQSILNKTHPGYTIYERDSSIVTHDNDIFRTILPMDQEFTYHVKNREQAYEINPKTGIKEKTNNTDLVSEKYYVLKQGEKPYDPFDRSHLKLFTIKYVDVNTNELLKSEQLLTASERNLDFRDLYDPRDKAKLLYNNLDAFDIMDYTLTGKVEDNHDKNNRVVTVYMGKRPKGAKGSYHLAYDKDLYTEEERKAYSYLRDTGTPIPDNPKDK
# Streptococcus = experiment: Group A Streptococcus viability loss, dose response, counter-screen for streptokinase expression inhibitor project, luminescence, BacTiterGlo (AID 1915); type: functional, organism-based;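 note: potency for reduction of bacterial viability or growth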
# [6] = HepG2 cell cytotoxicity, dose response, cytotoxicity control for Shn3 inhibitor project, CellTiter-Glo, cherry-picked (AID 624134); type: functional, cell-based
# [7] = target: T2, Probable nicotinate-nucleotide adenylyltransferase (Staphylococcus aureus (strain N315), UniProt P65502); type: functional, Staphylococcus aureus subsp. aureus N315; settings: read-out: IC50_Mean;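 for IC50 Mean: confirmatory dose-response retesting of NadD inhibitor hits first found in an ultra-high-throughput screen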
# [8] = inhibitors of Vif binding to APOBEC3G peptide, primary screen, biochemical, TR-FRET, GST-Vif 1-94, biotin-A3G peptide, dose response retest (AID 1117319); type: functional;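 note: TR-FRET signal of purified GST-Vif binding a biotinylated A3G peptide; inhibitors lower the FRET signal by blocking Vif and A3G binding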
# [9] = THP-1 cell cytotoxicity, dose response, cytotoxicity control for Vif-APOBEC3G degradation inhibitor project, THP-1 cells (AID 1117359); type: functional; settings: Human immunodeficiency virus 1, THP-1
# [10] = cytotoxicity toward NIH3T3 fibroblasts, dose response, counter-screen, cell-based, ATP luminescence, mouse fibroblasts (AID 2010); type: functional;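 note: cells exposed to compound for about 90 hours before reading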
# Galanin receptor type 2 = Galanin receptor type 2 (Homo sapiens, UniProt O43603); experiment: Dose Response cell-based high-throughput screening assay to identify agonists of galanin receptor 2 (GALR2). [Related pubchem assays: 864 ]; type: functional
# [11] = inhibitors of intracellular T. cruzi replication, confirmation, NIH3T3 host cells, beta-gal luminescence (AID 2044); type: functional, cell-based;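 note: intracellular parasites grown in NIH/3T3 mouse fibroblasts as host cells; luminescent beta-galactosidase reporter signal from transgenic T. cruzi replicating inside host cells; inhibitors lower the luminescence signal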
# [12] = Shn3 3'UTR reporter inhibitors, dose response, cell-based, Clone20 osteoblasts, firefly luciferase, cherry-picked (AID 624132); type: functional;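 note: firefly luciferase luminescence from reporter carrying the Shn3 3'UTR in osteoblasts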
# INS1 = experiment: beta cell apoptosis inhibitors, cytokine rescue, dose response, luminescence, retest (AID 449756); type: functional, cell-based; settings: Rattus norvegicus;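 note: cell death triggered by IL-1 beta plus TNF-alpha plus IFN-gamma mixture; protective hits raise ATP signal compared with cytokine alone wells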
# [13] = target: T2, Probable nicotinate-nucleotide adenylyltransferase; type: functional, Staphylococcus aureus subsp. aureus N315
# [14] = control 3'UTR Renilla luciferase suppression, dose response, counter-screen for Shn3 inhibitor project, cell-based, Clone20-Shn3RL, cherry-picked (AID 624133); type: functional
# 14-3-3 protein gamma = 14-3-3 protein gamma (Homo sapiens, UniProt P61981); experiment: modulators of 14-3-3 gamma client binding – dose response (AID 711); type: functional
# [15] = target: T3, Short transient receptor potential channel 4 (Mus musculus, UniProt Q9QUQ5); experiment: mouse TRPC4 channel inhibitors, dose response, cell-based, HEK293 TRPC4/mu-opioid, Fluo-4 calcium (AID 434942); type: functional;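 note: potency of inhibitors blocking the TRPC4 calcium response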
# T3 sequence (Q9QUQ5 whole entry): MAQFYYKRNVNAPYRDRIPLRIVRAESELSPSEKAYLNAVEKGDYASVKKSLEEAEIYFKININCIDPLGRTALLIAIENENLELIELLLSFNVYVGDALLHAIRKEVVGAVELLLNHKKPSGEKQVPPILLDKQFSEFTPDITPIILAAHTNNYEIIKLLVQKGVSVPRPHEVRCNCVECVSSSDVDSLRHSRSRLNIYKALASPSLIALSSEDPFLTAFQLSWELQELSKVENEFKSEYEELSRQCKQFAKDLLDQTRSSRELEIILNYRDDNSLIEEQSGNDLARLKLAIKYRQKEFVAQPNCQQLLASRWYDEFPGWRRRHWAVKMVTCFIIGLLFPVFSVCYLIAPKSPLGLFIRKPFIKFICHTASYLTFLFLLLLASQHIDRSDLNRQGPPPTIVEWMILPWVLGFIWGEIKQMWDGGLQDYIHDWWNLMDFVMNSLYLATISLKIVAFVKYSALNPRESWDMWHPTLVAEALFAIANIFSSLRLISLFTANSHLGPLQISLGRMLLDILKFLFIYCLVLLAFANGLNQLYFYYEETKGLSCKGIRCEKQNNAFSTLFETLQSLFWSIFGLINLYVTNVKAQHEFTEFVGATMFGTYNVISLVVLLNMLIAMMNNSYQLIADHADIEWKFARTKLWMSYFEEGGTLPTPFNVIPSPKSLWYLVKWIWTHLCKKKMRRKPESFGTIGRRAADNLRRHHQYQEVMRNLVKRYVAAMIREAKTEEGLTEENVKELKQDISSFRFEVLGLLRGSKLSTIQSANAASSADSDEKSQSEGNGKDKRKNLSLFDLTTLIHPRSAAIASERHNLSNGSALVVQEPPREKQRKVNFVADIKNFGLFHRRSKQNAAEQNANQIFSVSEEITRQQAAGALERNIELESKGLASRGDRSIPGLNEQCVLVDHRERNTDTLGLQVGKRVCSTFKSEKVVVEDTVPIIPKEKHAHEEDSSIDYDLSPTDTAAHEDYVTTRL
# fMet-Leu-Phe receptor = target: T4, fMet-Leu-Phe receptor (Homo sapiens, UniProt P21462); experiment: FPR ligands, dose response (AID 519); type: functional
# T4 sequence (P21462 whole entry): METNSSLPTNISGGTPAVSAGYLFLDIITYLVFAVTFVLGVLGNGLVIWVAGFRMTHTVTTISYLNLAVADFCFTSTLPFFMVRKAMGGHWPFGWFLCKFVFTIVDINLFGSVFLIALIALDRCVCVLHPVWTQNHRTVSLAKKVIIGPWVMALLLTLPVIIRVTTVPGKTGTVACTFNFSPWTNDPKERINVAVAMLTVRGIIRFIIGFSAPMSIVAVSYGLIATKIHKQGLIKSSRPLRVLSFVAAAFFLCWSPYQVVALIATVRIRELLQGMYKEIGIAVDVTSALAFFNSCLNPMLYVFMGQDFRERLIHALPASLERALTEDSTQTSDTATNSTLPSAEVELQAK
# [16] = target: Mitogen-activated protein kinase 10 (Homo sapiens, UniProt P53779); experiment: Dose response biochemical screening assay for inhibitors of c-Jun N-Terminal Kinase 3 (JNK3). [Related pubchem assays: 746 ]
# [17] = target: Peroxisome proliferator-activated receptor gamma/Nuclear receptor corepressor 2 (Homo sapiens, UniProt P37231+Q9Y618); experiment: Counterscreen for NR2E3 inverse agonists: TR-FRET-based biochemical high throughput dose response assay to identify inverse agonists of the interaction between peroxisome proliferator-activated receptor gamma (PPARg) and nuclear receptor co-repressor 2 (NCOR2).; type: functional
# [18] = target: Photoreceptor-specific nuclear receptor (Homo sapiens, UniProt Q9Y5X4); experiment: NR2E3 inverse agonists, dose response, biochemical, TR-FRET (AID 463256); type: functional
# [19] = target: Beta-2 adrenergic receptor (Homo sapiens, UniProt P07550); experiment: beta2AR agonists driving receptor internalization, dose response, cell-based, FAP fluorogen, flow cytometry, cherry pick 1 (AID 588763); type: functional
# [20] = HeLa 2N DNA content increase, dose response, cell-based, IC50 (AID 1117349); type: functional
# Cytochrome P450 2D6 = Cytochrome P450 2D6 (Homo sapiens, UniProt P10635);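 note: CYP2D6 member of a cytochrome P450 panel assay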
# [21] = Glucagon-like peptide 1 release potency, NCI-H716 cell line, dose-response, half-maximal inhibitory concentration (AID 1117344); type: functional, cell-based
# [22] = half-maximal inhibitory concentration for glucagon-like peptide-1 release, STC-1 cell line, dose-response (AID 1117345); type: functional, cell-based
# [23] = target: ATP-dependent molecular chaperone HSP82 (Candida albicans (strain WO-1) (Yeast), UniProt C4YTQ8); experiment: loss of DOC-induced GRE-beta-galactosidase reporter signal, dose response, Hsp90 inhibitor project, S. cerevisiae, luminescence (AID 2400); type: functional, cell-based;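 note: beta-galactosidase luminescence from glucocorticoid response element reporter as proxy for Hsp90 function; inhibitor potency where signal loss means Hsp90 inhibition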
# [24] = NIH-3T3 fibroblast cytotoxicity, dose response, cytotoxicity control, cell-based, fluorescence, Alamar Blue, secondary assay (AID 2327); type: functional;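 note: NIH-3T3 mouse fibroblasts cultured with fluconazole at 8 µg/mL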
# [25] = C. albicans growth with fluconazole, confirmation, fluorescence, retest (AID 2467); type: functional, cell-based
# [26] = HeLa 4N DNA content increase, dose response, cell-based, IC50 (AID 1117351); type: functional
# [27] = target: T5, Serine/threonine-protein phosphatase (Candida dubliniensis (strain CD36 / CBS 7987 / NCPF 3949 / NRRLY-17841) (Yeast), UniProt B9W6M3); experiment: calcineurin pathway inhibitors in yeast reporter, dose response, S. cerevisiae, CDRE-lacZ, luminescence, secondary (AID 2388); type: functional, cell-based;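 note: yeast reporter cells carrying a calcineurin-responsive lacZ construct stimulated with calcium chloride; luminescent beta-galactosidase reporter signal in whole cells rather than isolated phosphatase activity; potency for inhibition where a drop in reporter signal means calcineurin blockade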
# T5 sequence (B9W6M3 whole entry): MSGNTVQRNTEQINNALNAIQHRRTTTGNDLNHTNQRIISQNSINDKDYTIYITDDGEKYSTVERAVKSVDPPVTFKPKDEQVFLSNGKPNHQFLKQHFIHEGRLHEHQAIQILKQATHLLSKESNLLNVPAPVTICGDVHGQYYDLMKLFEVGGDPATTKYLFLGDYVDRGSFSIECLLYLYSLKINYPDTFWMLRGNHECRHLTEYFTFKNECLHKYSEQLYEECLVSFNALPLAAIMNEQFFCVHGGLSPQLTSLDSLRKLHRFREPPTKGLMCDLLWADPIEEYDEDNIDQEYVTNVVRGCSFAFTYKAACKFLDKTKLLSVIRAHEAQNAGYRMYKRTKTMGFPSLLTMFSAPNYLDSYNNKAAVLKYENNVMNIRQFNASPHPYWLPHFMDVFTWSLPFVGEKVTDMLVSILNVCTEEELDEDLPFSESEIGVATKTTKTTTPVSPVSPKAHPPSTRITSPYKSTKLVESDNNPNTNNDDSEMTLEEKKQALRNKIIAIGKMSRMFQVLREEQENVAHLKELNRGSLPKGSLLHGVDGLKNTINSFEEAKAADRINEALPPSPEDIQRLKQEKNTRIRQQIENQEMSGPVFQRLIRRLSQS
# Cytochrome P450 2C19 = Cytochrome P450 2C19 (Homo sapiens, UniProt P33261); experiment: Cytochrome panel assay with activity outcomes. Panel member name: p450-cyp2c19 Compounds with AC50 equal or less than 10 uM are considered active; type: functional; settings: read-out: AC50
# Cytochrome P450 2C9 = Cytochrome P450 2C9 (Homo sapiens, UniProt P11712)
# [28] = target: Heat shock protein HSP 90-alpha (Homo sapiens, UniProt P07900); type: functional, organism-based
# Cytochrome P450 2D6, sequence (P10635 whole entry): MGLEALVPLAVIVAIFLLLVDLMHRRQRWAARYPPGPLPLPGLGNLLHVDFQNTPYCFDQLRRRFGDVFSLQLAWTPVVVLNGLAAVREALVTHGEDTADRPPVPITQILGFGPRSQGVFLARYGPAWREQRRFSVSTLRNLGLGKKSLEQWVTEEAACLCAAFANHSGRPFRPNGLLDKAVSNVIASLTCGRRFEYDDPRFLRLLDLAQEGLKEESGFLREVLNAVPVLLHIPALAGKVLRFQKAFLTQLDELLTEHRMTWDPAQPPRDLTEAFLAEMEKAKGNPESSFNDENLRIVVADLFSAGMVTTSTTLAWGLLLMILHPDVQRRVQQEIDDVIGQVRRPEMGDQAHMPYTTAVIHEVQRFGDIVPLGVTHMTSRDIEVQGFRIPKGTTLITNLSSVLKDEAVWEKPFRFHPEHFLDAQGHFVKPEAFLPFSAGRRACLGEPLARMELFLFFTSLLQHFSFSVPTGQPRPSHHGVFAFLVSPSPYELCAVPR
# T2 sequence (P65502 whole entry): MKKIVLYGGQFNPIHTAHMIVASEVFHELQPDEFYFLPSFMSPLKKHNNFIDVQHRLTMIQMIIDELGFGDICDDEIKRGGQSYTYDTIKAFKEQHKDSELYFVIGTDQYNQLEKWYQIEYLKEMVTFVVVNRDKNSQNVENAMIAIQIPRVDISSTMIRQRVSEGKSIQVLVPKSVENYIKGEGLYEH
# Cytochrome P450 2C9, sequence (P11712 whole entry): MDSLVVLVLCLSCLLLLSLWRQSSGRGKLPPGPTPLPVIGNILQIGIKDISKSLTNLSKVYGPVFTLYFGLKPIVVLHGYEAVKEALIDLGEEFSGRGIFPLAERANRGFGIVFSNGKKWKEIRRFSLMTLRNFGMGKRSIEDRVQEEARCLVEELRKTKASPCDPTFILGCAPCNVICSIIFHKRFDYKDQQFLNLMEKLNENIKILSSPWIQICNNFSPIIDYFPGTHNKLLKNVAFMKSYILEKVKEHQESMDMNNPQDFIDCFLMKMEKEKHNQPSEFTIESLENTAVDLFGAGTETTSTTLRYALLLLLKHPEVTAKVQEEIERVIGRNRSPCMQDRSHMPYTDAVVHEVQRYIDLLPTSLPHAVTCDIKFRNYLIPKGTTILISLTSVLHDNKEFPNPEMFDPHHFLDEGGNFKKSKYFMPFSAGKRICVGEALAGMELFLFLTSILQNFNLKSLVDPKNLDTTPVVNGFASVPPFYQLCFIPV
# Cytochrome P450 2C19, sequence (P33261 whole entry): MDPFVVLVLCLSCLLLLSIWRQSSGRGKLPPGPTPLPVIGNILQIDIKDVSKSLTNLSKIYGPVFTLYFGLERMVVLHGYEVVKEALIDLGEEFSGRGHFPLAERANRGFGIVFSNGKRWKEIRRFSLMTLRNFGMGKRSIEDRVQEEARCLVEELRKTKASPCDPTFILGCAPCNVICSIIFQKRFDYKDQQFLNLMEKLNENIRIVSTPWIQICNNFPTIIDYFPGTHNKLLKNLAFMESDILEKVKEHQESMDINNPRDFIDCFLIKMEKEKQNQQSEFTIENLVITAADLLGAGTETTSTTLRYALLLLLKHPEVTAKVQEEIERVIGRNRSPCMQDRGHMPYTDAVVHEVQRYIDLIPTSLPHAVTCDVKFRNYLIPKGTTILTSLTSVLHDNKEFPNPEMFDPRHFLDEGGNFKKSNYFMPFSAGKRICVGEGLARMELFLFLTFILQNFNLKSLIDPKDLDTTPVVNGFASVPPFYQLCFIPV
# 14-3-3 protein gamma, sequence (P61981 whole entry): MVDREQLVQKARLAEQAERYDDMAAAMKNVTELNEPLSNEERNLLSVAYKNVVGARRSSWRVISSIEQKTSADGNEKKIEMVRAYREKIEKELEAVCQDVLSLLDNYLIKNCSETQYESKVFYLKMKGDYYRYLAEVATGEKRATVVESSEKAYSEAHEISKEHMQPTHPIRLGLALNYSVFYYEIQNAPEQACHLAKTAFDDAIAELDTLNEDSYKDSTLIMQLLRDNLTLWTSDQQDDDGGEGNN
# Mitogen-activated protein kinase 10, sequence (P53779 whole entry): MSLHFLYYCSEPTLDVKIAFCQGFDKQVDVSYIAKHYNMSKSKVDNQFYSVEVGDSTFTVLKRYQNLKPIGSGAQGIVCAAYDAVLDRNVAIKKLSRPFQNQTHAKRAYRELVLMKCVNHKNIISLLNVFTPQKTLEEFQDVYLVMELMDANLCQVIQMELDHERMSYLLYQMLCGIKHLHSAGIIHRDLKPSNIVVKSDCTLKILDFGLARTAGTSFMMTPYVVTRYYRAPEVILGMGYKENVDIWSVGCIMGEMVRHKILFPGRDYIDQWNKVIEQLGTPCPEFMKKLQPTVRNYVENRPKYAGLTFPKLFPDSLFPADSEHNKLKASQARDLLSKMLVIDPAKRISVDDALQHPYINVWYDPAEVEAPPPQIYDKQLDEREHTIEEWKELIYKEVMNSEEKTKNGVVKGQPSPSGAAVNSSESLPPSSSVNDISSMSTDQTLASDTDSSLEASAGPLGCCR
# Photoreceptor-specific nuclear receptor, sequence (Q9Y5X4 whole entry): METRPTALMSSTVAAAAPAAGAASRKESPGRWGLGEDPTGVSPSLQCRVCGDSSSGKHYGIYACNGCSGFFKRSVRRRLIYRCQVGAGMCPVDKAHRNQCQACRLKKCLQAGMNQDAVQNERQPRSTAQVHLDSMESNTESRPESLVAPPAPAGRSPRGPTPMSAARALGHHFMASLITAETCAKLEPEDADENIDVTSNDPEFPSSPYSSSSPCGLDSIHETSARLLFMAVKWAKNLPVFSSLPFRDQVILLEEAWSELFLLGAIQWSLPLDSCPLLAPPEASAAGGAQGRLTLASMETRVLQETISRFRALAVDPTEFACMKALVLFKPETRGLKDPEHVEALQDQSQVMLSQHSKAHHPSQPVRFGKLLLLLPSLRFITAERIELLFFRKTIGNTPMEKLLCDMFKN
# ATP-dependent molecular chaperone HSP82, sequence (C4YTQ8 whole entry): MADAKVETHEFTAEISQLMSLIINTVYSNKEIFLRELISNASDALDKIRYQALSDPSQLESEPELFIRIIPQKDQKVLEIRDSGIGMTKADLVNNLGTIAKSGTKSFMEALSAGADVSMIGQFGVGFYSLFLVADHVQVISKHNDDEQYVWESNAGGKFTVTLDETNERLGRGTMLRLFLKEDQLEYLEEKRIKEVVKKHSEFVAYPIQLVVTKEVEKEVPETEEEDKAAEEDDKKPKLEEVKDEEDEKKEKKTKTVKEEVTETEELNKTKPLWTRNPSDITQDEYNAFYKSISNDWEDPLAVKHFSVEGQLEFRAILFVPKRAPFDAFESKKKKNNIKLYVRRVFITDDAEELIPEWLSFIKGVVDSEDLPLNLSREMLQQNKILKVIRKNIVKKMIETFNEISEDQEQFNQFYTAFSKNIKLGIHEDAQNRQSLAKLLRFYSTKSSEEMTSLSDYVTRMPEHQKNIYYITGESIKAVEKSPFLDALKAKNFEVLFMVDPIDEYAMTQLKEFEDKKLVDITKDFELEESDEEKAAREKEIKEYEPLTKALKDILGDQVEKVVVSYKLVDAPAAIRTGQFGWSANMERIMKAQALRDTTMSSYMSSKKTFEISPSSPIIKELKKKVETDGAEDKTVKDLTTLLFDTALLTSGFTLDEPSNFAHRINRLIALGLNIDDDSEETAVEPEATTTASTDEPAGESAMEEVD
# Beta-2 adrenergic receptor, sequence (P07550 whole entry): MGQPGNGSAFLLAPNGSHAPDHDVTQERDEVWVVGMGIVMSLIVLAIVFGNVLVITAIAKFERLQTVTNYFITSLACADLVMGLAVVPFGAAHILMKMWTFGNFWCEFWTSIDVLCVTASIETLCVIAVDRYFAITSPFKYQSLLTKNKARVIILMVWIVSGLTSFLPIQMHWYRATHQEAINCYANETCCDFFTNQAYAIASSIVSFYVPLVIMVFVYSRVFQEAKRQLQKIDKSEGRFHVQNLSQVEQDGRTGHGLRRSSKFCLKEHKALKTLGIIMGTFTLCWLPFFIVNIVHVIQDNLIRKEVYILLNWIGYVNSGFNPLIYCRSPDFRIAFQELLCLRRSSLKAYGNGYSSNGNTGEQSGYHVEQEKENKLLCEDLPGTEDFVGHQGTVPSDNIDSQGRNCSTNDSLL
# Galanin receptor type 2, sequence (O43603 whole entry): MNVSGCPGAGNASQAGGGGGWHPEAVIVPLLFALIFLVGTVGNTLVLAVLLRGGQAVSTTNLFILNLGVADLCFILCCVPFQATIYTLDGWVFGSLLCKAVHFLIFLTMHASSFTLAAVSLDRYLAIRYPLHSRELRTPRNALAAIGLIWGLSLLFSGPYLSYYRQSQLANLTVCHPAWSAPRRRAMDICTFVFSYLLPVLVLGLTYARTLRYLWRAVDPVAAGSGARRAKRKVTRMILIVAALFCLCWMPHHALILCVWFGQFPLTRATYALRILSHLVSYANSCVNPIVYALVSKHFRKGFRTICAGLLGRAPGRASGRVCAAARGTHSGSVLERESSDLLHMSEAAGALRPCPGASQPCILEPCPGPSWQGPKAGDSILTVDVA
compound,measurement,setting,value
CC(C)c1ccc(-c2[nH]c(N3CCCC3)nc3nnc(N)c2-3)cc1,EC50,[1],12.9 µM (active)
same,EC50,[2],> 120 µM (not active)
same,EC50,[3],103 µM (active)
same,EC50,[4],> 120 µM (not active)
same,CC50,[5],> 40 µM (active)
same,EC50,Streptokinase A,> 150 µM (not active)
same,EC50,Streptococcus,> 150 µM (not active)
Cc1cccc2sc(NNC(=O)c3ccc(S(=O)(=O)N4CC(C)CC(C)C4)cc3)nc12 (configuration not stated),AC50,[6],5.61 µM (active)
same,EC50,[3],1.18 µM (active)
same,IC50,[7],42.1 µM (active)
same,IC50,[8],> 100 µM (active)
same,CC50,[9],2.27 µM (active)
same,EC50,[10],7.47 µM (active)
same,EC50,Streptococcus,4.98 µM (active)
same,EC50,Galanin receptor type 2,> 55.7 µM (not active)
same,EC50,[11],1.22 µM (active)
same,AC50,[12],2.57 µM (active)
same,AC50,INS1,1.73 µM (active)
same,IC50,[13],8.16 µM (active)
same,AC50,[14],5.72 µM (active)
COc1ccc(Nc2cc(C)nc3ccccc23)cc1,IC50,14-3-3 protein gamma,> 50 µM (not active)
same,EC50,[15],2.99 µM (active)
CCCOc1ccc(C2C(C(=O)c3ccc(C)o3)=C(O)C(=O)N2CCCn2ccnc2)cc1 (configuration not stated),Ki,fMet-Leu-Phe receptor,13.8 µM (active)
same,IC50,[16],19.7 µM (not active)
COc1cc2ccccc2cc1C(=O)Nc1ccc2oc(=O)ccc2c1,IC50,[17],2.86 µM (active)
same,IC50,[18],2.28 µM (active)
Clc1ccccc1C(c1ccccc1)(c1ccccc1)n1ccnc1 [CLOTRIMAZOLE],EC50,[19],4.69 µM (active)
same,IC50,[20],> 10 µM (inactive)
same,AC50,Cytochrome P450 2D6,10 µM (active) and 39.8 µM (inconclusive)
same,IC50,[21],20.2 µM (inactive)
same,EC50,[3],4.3 µM (active)
same,IC50,[22],> 40 µM (inactive)
same,EC50,[23],> 150 µM (inactive)
same,EC50,[24],11.6 µM (active)
same,EC50,[25],0.628 µM (active)
same,IC50,[26],> 10 µM (inactive)
same,EC50,[27],> 180 µM (inactive)
same,EC50,Streptokinase A,> 150 µM (not active)
same,AC50,Cytochrome P450 2C19,10 µM (active) and 7.94 µM (inconclusive)
same,EC50,Streptococcus,7.15 µM (active)
same,AC50,Cytochrome P450 2C9,1 µM (active) and 316 nM (active)
same,AC50,[28],< 0.195 µM (active)
